Experimental data published in the NIST ThermoML archive (doi:10.1016/j.jct.2011.02.021).
± gives the expanded uncertainty stated by the source.

Test: molar enthalpy of vaporization or sublimation
Settings: 298.15 K; Crystal; drop microcalorimetry

molar enthalpy [kcal/mol] | SMILES
20.7 ± 0.717 | Cc1cc(=O)cc(C)o1 [2,6-dimethyl-γ-pyrone]
21.8 ± 0.956 | CCc1occc(=O)c1O [2-ethyl-3-hydroxy-4H-pyran-4-one]
